“And” between values parts separate entries of the source, which are not always exact repeats. Equal entries are not always repeated.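 Step 1: Grow cells in 96-well plates. Step 2: Expose to compound for 48 hours at 5 concentrations. Step 3: Interpolate endpoints linearly; if unreached, use highest concentration. GI50 is the concentration that inhibits growth by half. TGI: concentration producing complete growth inhibition.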
How the values were obtained:
Test in all cases: NCI tumour cell line growth inhibition, 48 h
[1] = tested on: SNB-19 CNS
[2] = tested on: RXF 393 renal
[3] = tested on: HOP-92 NSCLC
[4] = tested on: SF-268 CNS
[5] = tested on: SK-OV-3 ovarian
[6] = tested on: MDA-N
[7] = tested on: BT-549 breast
[8] = tested on: NCI/ADR-RES ovarian
[9] = tested on: HCT-15 colon
[10] = tested on: HCT-116 colon
[11] = tested on: HL-60(TB) leukemia
[12] = tested on: SK-MEL-2 melanoma
[13] = tested on: K-562 leukemia
[14] = tested on: SK-MEL-5 melanoma
[15] = tested on: RPMI-8226 leukemia
[16] = tested on: SF-539 CNS

Compound	TGI [1]	TGI [2] [µM]	TGI [3]	TGI [4]	TGI [5]	TGI [6]	TGI [7]	TGI [8] [µM]	TGI [9]	TGI [10]	TGI [11]	TGI [12] [µM]	TGI [13] [µM]	TGI [14] [µM]	TGI [15]	TGI [16] [µM]	GI50 [4]	GI50 [5]	GI50 [8] [µM]
CN1C(=O)CN=C(c2ccccc2F)c2cc(N=C=S)ccc21	> 100 µM	87.7	> 100 µM	> 100 µM	> 100 µM	> 100 µM	> 100 µM	> 100	> 100 µM	> 100 µM	> 100 µM	> 100	–	–	–	–	–	–	–
CCOC(=O)CCC(NC(=O)c1ccc(OCc2ccc3nc(OC)c(OC)nc3c2)cc1)C(=O)OCC (stereo not given)	> 100 µM	90.7	> 100 µM	> 100 µM	> 100 µM	> 100 µM	> 100 µM	–	> 100 µM	> 100 µM	73.5 µM	74.6	> 100	> 100	> 100 µM	> 100	–	–	–
c1ccc(CNCCCNCCCCNCCCNCc2ccccc2)cc1	27.4 µM	25.7	3.57 µM	25.6 µM	31 µM	4.13 µM	33.3 µM	> 100	33.8 µM	14.4 µM	4 µM	31.4	–	> 56.2	13.7 µM	3.72	–	–	–
CC(=O)N1N=C(c2ccccc2Nc2ccccc2C2=NN(C(C)=O)C(c3ccccc3)O2)OC1c1ccccc1 (stereo not given)	> 100 µM	> 100	> 100 µM	–	> 100 µM	> 100 µM	> 100 µM	> 100	> 100 µM	> 100 µM	–	> 100	> 100	> 100	> 100 µM	–	–	–	–
C=CCC1(O)C(=O)OC2C(O)COC21O (stereo not given)	> 100 µM	> 100	> 100 µM	> 100 µM	> 100 µM	> 100 µM	> 100 µM	> 100	> 100 µM	> 100 µM	> 100 µM	> 100	> 100	> 100	–	> 100	–	–	–
COc1ccc(N2C(=O)C(C#N)=C(SC)C(C#N)C2=O)cc1 (stereo not given)	> 100 µM	> 100	> 100 µM	> 100 µM	> 100 µM	> 100 µM	> 100 µM	> 100	> 100 µM	> 100 µM	–	> 100	> 100	> 100	–	> 100	–	–	–
O=C(Nc1ccc(Cl)cc1Cl)c1cc2nc3ccccc3c(=O)n2c2ccccc12	> 10 µM	> 10	> 10 µM	> 10 µM	> 10 µM	> 10 µM	> 10 µM	> 10	> 10 µM	> 10 µM	> 10 µM	> 10	> 10	> 10	–	> 10	–	–	–
N#Cc1c(N)nc2c(N=Nc3ccccc3)c(N)nn2c1Nc1ccccc1	39.9 µM	29.2	31.6 µM	56.9 µM	–	38.5 µM	50.6 µM	53.9	> 100 µM	27 µM	6.56 µM	48.2	> 100	32.6	16.2 µM	47.2	–	–	–
Cc1cc(CN(Cc2ccccc2)Cc2nc3ccccc3[nH]2)c(O)c(CN(Cc2nc3ccccc3[nH]2)Cc2nc3ccccc3[nH]2)c1	> 25.1 µM	64.1	14.7 µM	> 100 µM	> 52.3 µM	29 µM	18.3 µM	35.9	> 23.1 µM	23.1 µM	–	36.1	> 26.3	19.5	38.4 µM	22.4	–	–	–
O=[N+]([O-])c1ccc(OP(=O)(O)OCC2OC(CP(=O)(O)O)C(O)C2O)cc1 (stereo not given)	> 100 µM	> 100	> 100 µM	> 100 µM	–	> 100 µM	> 100 µM	> 100	> 100 µM	> 100 µM	> 100 µM	> 100	> 100	> 100	–	> 100	–	–	–
CC(C)CC(NC=O)C(=O)NC(Cc1ccccc1)NC(=O)CNC(=O)C(C)NC(=O)OC(C)(C)C (stereo not given)	> 100 µM	> 100	> 100 µM	> 100 µM	> 100 µM	> 100 µM	> 100 µM	> 100	> 100 µM	> 100 µM	> 100 µM	–	> 100	> 100	> 100 µM	> 100	–	–	–
COc1ccc2[nH]c3c(C)c4ccnc(NCCCN(C)CCCN)c4c(C)c3c2c1	0.403 µM	–	–	–	2.47 µM	0.496 µM	3.61 µM	2.09	1.47 µM	–	–	0.809	> 100	0.37	> 100 µM	0.28	–	–	–
Cc1ccc(S(=O)(=O)Nn2c(C)cc3ccc(S(=O)(=O)Nc4ccccc4[N+](=O)[O-])cc3c2=O)cc1	> 100 µM	–	> 100 µM	> 100 µM	> 100 µM	> 100 µM	> 100 µM	> 100	> 100 µM	> 100 µM	> 100 µM	> 100	> 100	–	> 100 µM	> 100	–	–	–
O=C(O)c1cccc(S(=O)(=O)NN2C(=O)CSC2c2ccccc2Cl)c1 (stereo not given)	> 100 µM	> 100	> 100 µM	> 100 µM	> 100 µM	> 100 µM	> 100 µM	–	> 100 µM	> 100 µM	> 100 µM	> 100	> 100	> 100	> 100 µM	> 100	–	–	–
COc1cc(CC(C)N[C@@H](C)c2ccccc2)cc(OC)c1 (stereo not given in full)	21.3 µM and > 100 µM	> 100	10.8 µM and > 100 µM	25.8 µM and > 100 µM	25.5 µM and > 100 µM	16.3 µM and > 100 µM	20.4 µM and > 100 µM	> 100	16.1 µM and > 100 µM	26 µM and > 100 µM	10.7 µM and > 100 µM	> 100	–	–	11.6 µM and > 100 µM	> 100	12.3 µM and > 100 µM	12.9 µM and > 100 µM	> 100
NC(CCC(=O)NC(CSC(=O)N(O)c1ccc(Cl)cc1)C(=O)NCC(=O)O)C(=O)O (stereo not given)	> 0.5 µM	> 0.5	> 0.5 µM	> 0.5 µM	> 0.5 µM	> 0.5 µM	> 0.5 µM	> 0.5	> 0.5 µM	> 0.5 µM	–	> 0.5	> 0.5	> 0.5	> 0.5 µM	> 0.5	–	–	–
